Assay results as given in patent US20250215039A1, “NUCLEOSIDES FOR TREATING CANCER” (PRIMEFOUR THERAPEUTICS, INC., priority 2022, published 2025).
Where two headings read alike, the source gives them in different places.

System: cancer cell lines
Test: Cancer cell proliferation activity (CellTiterGlo, 72 h)
Assay type: cell-based
Conditions: 72 h, 72 h, read-out: IC50
Outline: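 Readout is CellTiterGlo luminescence after 72 h compound exposure (0.1% DMSO final), started one day post-seeding, at 37 °C.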

IC50 (5637 cell line (bladder)): 4.09 µM
IC50 (CLS439 cell line (bladder)): > 50 µM
IC50 (HS729 cell line (muscle)): 8.57 µM
IC50 (HSS78T cell line): 3.71 µM
IC50 (JAR cell line (placenta)): 3.66 µM
IC50 (SKMELS cell line): 4.92 µM
IC50 (Homo sapiens, 22Rv1, 72 h, 22RV1 cell line (prostate)): > 50 µM
IC50 (Homo sapiens, 786-0, 72 h, 786O cell line (kidney)): 2.59 µM
IC50 (Homo sapiens, A204, 72 h, A204 cell line (muscle)): 4.91 µM
IC50 (Homo sapiens, A549, 72 h, A549 cell line): 4.96 µM
IC50 (Homo sapiens, A673, 72 h, A673 cell line (bone)): > 50 µM
IC50 (Homo sapiens, A2780, 72 h, A2780 cell line (ovary)): 4.54 µM
IC50 (Homo sapiens, A-375, 72 h, A375 cell line (skin)): 3.67 µM
IC50 (Homo sapiens, A-431, 72 h, A431 cell line (skin)): 2.29 µM
IC50 (Homo sapiens, ACHN, ACHN cell line (kidney)): > 50 µM
IC50 (Homo sapiens, ASPC1, 72 h, ASPC1 cell line (pancreas)): 2.99 µM
IC50 (Homo sapiens, BT-20, 72 h, BT20 cell line (breast)): 4.14 µM
IC50 (Homo sapiens, BXPC-3, 72 h, BXPC3 cell line (pancreas)): 7.13 µM
IC50 (Homo sapiens, C-33-A, C33A cell line (cervical)): 4.28 µM
IC50 (Homo sapiens, CAKI-1, 72 h, CAKI1 cell line (kidney)): 0.41 µM
IC50 (Homo sapiens, COLO 205, 72 h, COLO205 cell line (colon)): 5.86 µM
IC50 (Homo sapiens, COLO-678, 72 h, COLO678 cell line (colon)): 9.54 µM
IC50 (Homo sapiens, Ca-Ski, CASKI cell line (cervical)): 2.33 µM
IC50 (Homo sapiens, Caco-2, 72 h, CACO2 cell line (colon)): 5.32 µM
IC50 (Homo sapiens, Calu-6, 72 h, CALU6 cell line (lung)): 3.07 µM
IC50 (Homo sapiens, DLD-1, 72 h, DLD1 cell line (colon)): > 50 µM
IC50 (Homo sapiens, DU-145, 72 h, DU145 cell line (prostate)): 3.3 µM
IC50 (Homo sapiens, EFO-21, 72 h, EFO21 cell line (ovary)): 3.75 µM
IC50 (Homo sapiens, EJ-28, 72 h, EJ28 cell line (bladder)): 5.11 µM
IC50 (Homo sapiens, Granta-519, 72 h, GRANTA-519 cell line (hematological)): > 50 µM
IC50 (Homo sapiens, HCT-15, 72 h, HCT15 cell line (colon)): > 50 µM
IC50 (Homo sapiens, HCT-116, 72 h, HCT116 cell line (colon)): 3.96 µM
IC50 (Homo sapiens, HEK293, 72 h, HEK293 cell line (kidney)): 5.3 µM
IC50 (Homo sapiens, HL-60, 72 h, HL-60 cell line (hematological)): 5.42 µM
IC50 (Homo sapiens, HT-29, 72 h, HT29 cell line (colon)): 2.16 µM
IC50 (Homo sapiens, HT-1080, 72 h, HT1080 cell line (connective tissue)): > 50 µM
IC50 (Homo sapiens, HeLa, HELA cell line (cervical)): 2.73 µM
IC50 (Homo sapiens, HepG2, 72 h, HEPG2 cell line (liver)): 3.32 µM
IC50 (Homo sapiens, IGROV-1, 72 h, IGROV1 cell line (ovary)): 2.72 µM
IC50 (Homo sapiens, IMR-90, 72 h, IMR.90 cell line): 2.76 µM
IC50 (Homo sapiens, J82, 72 h, J82 cell line (bladder)): 3.18 µM
IC50 (Homo sapiens, JEG-3, 72 h, JEG3 cell line (placenta)): 3.36 µM
IC50 (Homo sapiens, JIMT-1, 72 h, JIMT1 cell line (breast)): 1.43 µM
IC50 (Homo sapiens, K562, 72 h, K-562 cell line (hematological)): > 50 µM
IC50 (Homo sapiens, Kasumi 1, 72 h, KASUMI-1 cell line (hematological)): 1.54 µM
IC50 (Homo sapiens, L-363, 72 h, L-363 cell line (hematological)): 3.16 µM
IC50 (Homo sapiens, LoVo, LOVO cell line (colon)): 3.61 µM
IC50 (Homo sapiens, MCF7, 72 h, MCF7 cell line (breast)): > 50 µM
IC50 (Homo sapiens, MDA-MB-231, 72 h, MDAMB231 cell line (breast)): > 50 µM
IC50 (Homo sapiens, MDA-MB-435, 72 h, MDAMB435 cell line (skin)): > 50 µM
IC50 (Homo sapiens, MDA-MB-436, 72 h, MDAMB436 cell line (breast)): 3.36 µM
IC50 (Homo sapiens, MDA-MB-468, 72 h, MDAMB468 cell line (breast)): 2.58 µM
IC50 (Homo sapiens, MG-63, 72 h, MG63 cell line (bone)): > 50 µM
IC50 (Homo sapiens, MHH-ES-1, 72 h, MHHES1 cell line (bone)): 3.07 µM
IC50 (Homo sapiens, MIA PaCa-2, 72 h, MIAPACA2 cell line (pancreas)): > 50 µM
IC50 (Homo sapiens, MINO, MINO cell line (hematological)): 2.52 µM
IC50 (Homo sapiens, MV4-11, 72 h, MV4-11 cell line (hematological)): 3.35 µM
IC50 (Homo sapiens, NCI-H23, 72 h, NCI-H23 cell line (lung)): 3.33 µM
IC50 (Homo sapiens, NCI-H82, 72 h, NCIH82 cell line (lung)): 3.4 µM
IC50 (Homo sapiens, NCI-H292, 72 h, NCIH292 cell line (lung)): > 50 µM
IC50 (Homo sapiens, NCI-H460, 72 h, NCIH460 cell line (lung)): 5.43 µM
IC50 (Homo sapiens, OVCAR-3, 72 h, OVCAR3 cell line (ovary)): 1.92 µM
IC50 (Homo sapiens, OVCAR-4, 72 h, OVCAR4 cell line (ovary)): 4.25 µM
IC50 (Homo sapiens, PANC-1, 72 h, PANC1 cell line (pancreas)): > 50 µM
IC50 (Homo sapiens, PC-3, 72 h, PC3 cell line (prostate)): 3.83 µM
IC50 (Homo sapiens, PLC-PRF-5, 72 h, PLCPRF5 cell line (liver)): > 50 µM
IC50 (Homo sapiens, Panc1005, 72 h, PANC1005 cell line (pancreas)): 2.98 µM
IC50 (Homo sapiens, RD, RD cell line (muscle)): 4.61 µM
IC50 (Homo sapiens, Ramos, RAMOS cell line (hematological)): 3.68 µM
IC50 (Homo sapiens, SAOS-2, 72 h, SAOS2 cell line (bone)): 4.32 µM
IC50 (Homo sapiens, SF-268, 72 h, SF268 cell line (brain)): > 50 µM
IC50 (Homo sapiens, SF-295, 72 h, SF295 cell line (brain)): > 50 µM
IC50 (Homo sapiens, SK-BR-3, 72 h, SKBR3 cell line (breast)): 1.09 µM
IC50 (Homo sapiens, SK-HEP1, 72 h, SKHEP1 cell line (liver)): 5.13 µM
IC50 (Homo sapiens, SK-LMS-1, 72 h, SKLMS1 cell line (uterus)): 4.34 µM
IC50 (Homo sapiens, SK-MEL-28, 72 h, SKMEL28 cell line (skin)): 3.69 µM
IC50 (Homo sapiens, SK-N-AS, SKNAS cell line (brain)): 2.78 µM
IC50 (Homo sapiens, SK-N-SH, SKNSH cell line (brain)): 2.65 µM
IC50 (Homo sapiens, SK-OV-3, 72 h, SKOV3 cell line (ovary)): 3.01 µM
IC50 (Homo sapiens, SNB-75, 72 h, SNB75 cell line (brain)): 9.06 µM
IC50 (Homo sapiens, SU-DHL10, 72 h, SU-DHL-10 cell line (hematological)): 4.84 µM
IC50 (Homo sapiens, SU-DHL-6, 72 h, SU-DHL-6 cell line (hematological)): 3.29 µM
IC50 (Homo sapiens, SW-620, 72 h, SW620 cell line (colon)): 3.44 µM
IC50 (Homo sapiens, T-24, 72 h, T24 cell line (bladder)): 3.9 µM
IC50 (Homo sapiens, TE-671, 72 h, TE671 cell line (muscle)): > 50 µM
IC50 (Homo sapiens, THP-1, 72 h, THP-1 cell line (hematological)): > 50 µM
IC50 (Homo sapiens, U2OS, U2OS cell line (bone)): 2.64 µM
IC50 (Homo sapiens, U-87 MG, U87MG cell line (brain)): > 50 µM
IC50 (Homo sapiens, UMUC3, 72 h, UMUC3 cell line (bladder)): > 50 µM
IC50 (Homo sapiens, UO-31, 72 h, UO31 cell line (kidney)): 2.15 µM
IC50 (Homo sapiens, WSU-NHL, WSU-NHL cell line (hematological)): 3.41 µM
IC50 (MT-3, 72 h, MT3 cell line (breast)): 2.87 µM
IC50 (NCI-H358M, NCIH358M cell line (lung)): 2.68 µM
IC50 (PBMC, PBMC (hematological)): > 50 µM
IC50 (RD-ES, RDES cell line (bone)): 3.07 µM
Structure (SMILES): CC(C)C[C@]1(CO)O[C@@H](n2cnc3c(N)nc(F)nc32)C[C@@H]1O [Cpd. No. 133, (2R,3S,5R)-5-(6-amino-2-fluoro-9H-purin-9-yl)-2-(hydroxymethyl)-2-isobutyltetrahydrofuran-3-ol]
